In the first data set the target is Cytochrome P450 3A4 (Homo sapiens, UniProt P08684). Nature of the data set: Inhibition of CYP3A4 after 30 mins by fluorescence microplate reader assay. Type of data set: ADME.
Sequence of Cytochrome P450 3A4 (P08684 whole entry): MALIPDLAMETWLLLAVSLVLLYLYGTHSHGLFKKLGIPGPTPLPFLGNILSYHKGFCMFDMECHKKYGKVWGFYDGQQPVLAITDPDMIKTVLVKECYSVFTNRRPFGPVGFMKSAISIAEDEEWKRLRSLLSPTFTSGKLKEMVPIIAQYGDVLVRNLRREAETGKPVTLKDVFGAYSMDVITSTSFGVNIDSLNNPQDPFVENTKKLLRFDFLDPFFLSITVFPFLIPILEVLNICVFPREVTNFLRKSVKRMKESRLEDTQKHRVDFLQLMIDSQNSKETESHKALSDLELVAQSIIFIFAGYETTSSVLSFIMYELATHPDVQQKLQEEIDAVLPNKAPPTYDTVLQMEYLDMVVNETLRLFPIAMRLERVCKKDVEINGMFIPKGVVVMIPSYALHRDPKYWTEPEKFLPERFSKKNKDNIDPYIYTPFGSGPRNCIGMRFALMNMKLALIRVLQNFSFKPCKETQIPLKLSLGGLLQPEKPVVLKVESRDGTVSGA
Details: not given; call rule not given here
In the case of `CCCCCCCCCC1O[C@H](CC/C(C)=C/COc2ccc3ccc(=O)oc3c2)C(C)(C)O1` (some centres not stated), the IC50 (in general, the midpoint of a concentration-inhibition curve) is listed as “Not Active”.
`CC(C)=CCC/C(C)=C/COc1ccc2ccc(=O)oc2c1` [AURAPTENE]: the half-maximal inhibitory concentration (IC50) entry is “Not Active”.
Still for that read-out and setting: in the case of `C/C(=C\COc1ccc2ccc(=O)oc2c1)CC[C@@H](O)C(C)(C)O` [R-(+)-MARMIN] it was “Not Active”.

The data set is the same for the next values; noted with them: read-out: IC50.
With `CCCCCCCC1O[C@H](CC/C(C)=C/COc2c3ccoc3cc3oc(=O)ccc23)C(C)(C)O1` (some centres not stated), the IC50 was determined as 0.13 µM.
On the same count and under the same terms, in the case of `CCCCCCCCCC1O[C@H](CC/C(C)=C/COc2c3ccoc3cc3oc(=O)ccc23)C(C)(C)O1` (some centres not stated) it was 0.27 µM.
Same read-out and setting: in the case of `C/C(=C\COc1c2ccoc2cc2oc(=O)ccc12)CC[C@@H](O)C(C)(C)O` it was 1.58 µM.
Consider `CC(C)=CCC/C(C)=C/COc1c2ccoc2cc2oc(=O)ccc12` [BERGAMOTTIN], for which the concentration for half-maximal inhibition (IC50) is 2.42 µM.
